From US7678778B2 (priority 2004, dated 2010)

Tested on: B16 Melanoma
Conditions: in vivo

| SMILES | T-C |
| --- | --- |
| O=P1(N(CCCl)CCCl)NCCCO1 (centres unmarked) [Cyclophosphamide, cyclophosphamide] | 27 days |
| O=P1(NCCCl)OCCCN1CCCl (centres unmarked) [Ifosfamide] | 18 days |
